We go through three molecules from US20220202739A1, “ENDOCANNABINOID MIMETIC AND ANTI-INFLAMMATORY COMPOUND CONTAINING COMPOSITIONS, METHODS OF PREPARATION AND USES THEREOF” (priority 2019, published 2022).

The structures appear in SMILES notation. Like-named read-outs stand apart in the source and are kept apart here.

The subject of assay [1] is IL1A. Briefly: Gene expression custom microarray, human skin fibroblasts (Example 1): IL1A. Type of assay: cell-based. Conditions: 24 hr; for fold induction at 10 µM: Skin fibroblast, read-out: IL1A↓ gene expression, fold increase or decrease vs untreated cells. The source says:
(§1) Cell cultures: A human skin fibroblast cell culture (or cultures) was obtained through the Coriell Cell Repository from the National Institute on Aging Cell Repository (Camden, N.J.), or Promocell GmbH (Heidelberg, Germany). The initial culture was selected from the following cell lines: AG13066, AG11557, AG11796 or GM03651E. The cell lines were derived from donors as follows:
(§2) Experimental phase: When the appropriate quantity of cells had been grown, they were detached as described above, but at the final step were seeded into each well of one or more 6 well dishes. Each well received 2 ml of the cell suspension so they were seeded equally. The dishes were returned to the incubator until 85-95% confluency was reached.
(§3) It is at this stage that all wells were rinsed in PBS after aspirating the growth media. The compound(s) to be tested were previously mixed into a suitable solvent (e.g., DMSO or ethanol) that can be diluted to the desired concentration of test compound (10 μl) in the culture wells without exceeding maximum solvent concentrations and adversely effecting cell viability, and mixed with basal media. NOTE: Standard maximum levels of solvent are 0.1% for DMSO and 0.5% for ETOH. The concentration of each test compound is found in Tables 1 & 2.
(§4) Every 2 wells on the 6 well plate served as a biological replicate for the purposes of RNA isolation and genetic expression evaluations making each 6 well dish an n=3 for the test compound(s) contained in the media. Negative control plates (no test compound(s) and only basal media) were also generated. The plates were returned to the incubator for 24 hrs.
(§5) At the end of the 24 hr time period, the plates were removed from the incubator, the test media aspirated, and the cells rinsed with PBS. RNA isolation is performed using the BioRad Aurum Total RNA Mini Kit (Hercules, Calif.) per manufacturer's protocol; which is described, in brief, below: • Add 350 μl of lysis buffer to each well. Pipet multiple times to ensure thorough lysis. Add lysed cells to the collection tube. • Add 350 μl of 70% ETOH to the collection tube and mix thoroughly. • Pipet the generated lysate onto the spin column placed in a new 2 ml tube. Centrifuge for 30 sec between 8,000 and 10,000 g. • Place the spin column containing the now bound RNA, in a new 2 ml tube. Add 700 μl of low stringency wash solution to the spin column. Centrifuge for 30 sec between 8,000 and 10,000 g. Discard the flow through and replace spin column. • Add 80 μl of DNase I dilution to the spin column and incubate at room temperature for 15 minutes. • Add 700 μl of high stringency wash solution to the column and centrifuge for 30 sec between 8,000 and 10,000 g. Discard flow through. • Add 700 μl of low stringency wash solution to the column and centrifuge for 60 sec between 8,000 and 10,000 g. Discard flow through. • Centrifuge for 2 minutes to remove residual wash solution. • Transfer spin column to new 1.5 ml collection tube and add 80 μl of elution solution to the column. Allow 1 minute for saturation of the membrane and then centrifuge for 2 minutes to complete the RNA elution. • Quantify the quantity of RNA and store at −20 C° until use (no more than 1 month)
(§6) The genes tested were: • Cannabinoid receptor 1 (CB1(CNR1)) • Cannabinoid receptor 2 (CB2 (CNR2)) • Fatty acid amide hydrolase (FAAH) • Monoacylglycerol lipase (MGLL, i.e., MAGL) • Peroxisome proliferator-activated receptor gamma (PPARG) • Nuclear factor kappa-light-chain-enhancer of activated B cells (NFκβ) • Interleukin 1 Alpha (IL1alpha) • Cyclooxygenase 1 (PTGS1, i.e., COX1) • Transient receptor potential cation channel subfamily A member 1 (TRPA1) • Transient receptor potential cation channel subfamily V member 1 (TRPV1) • Transient receptor potential cation channel subfamily M member 8 (TRPM8) • Hemoglobin Subunit Beta (HBB) REFERENCE GENE • Ribosomal Protein L13a (RPL13A) REFERENCE GENE […]

Assay [2] deals with CNR2. In words: Gene expression custom microarray, human skin fibroblasts (Example 1): CNR2. Conditions: for fold induction at 10 µM: Skin fibroblast, read-out: CNR2↑ gene expression, fold increase or decrease vs untreated cells. Type of assay: cell-based.
From the text: as §1, §2, §3, §4, §5, §6

Where [3] appears, read: human skin fibroblasts, 10 uM, 24 hr.

For `CCCCCCCCCCCCCCCC(=O)NCCO` [N-palmitoylethanolamide], in assay [1] (10 uM), the “IL1A↓ gene expression, fold increase or decrease vs untreated cells” value is recorded as −1.2 fold. In addition, the “CNR2↑ gene expression, fold increase or decrease vs untreated cells” value in assay [2] (setting [3]) stood at 3.9 fold.
Take `CC(C)[C@]12O[C@H]1[C@@H]1O[C@]13[C@]1(O[C@H]1C[C@H]1C4=C(CC[C@@]13C)C(=O)OC4)[C@@H]2O` [Triptolide]: the fold induction at 10 µM in assay [1] came to 15.5; in assay [2] (setting [3]), 10.1.
Take `C=C(C)[C@@H]1CCC(C)=C[C@H]1c1c(O)cc(CCCCC)cc1O` [CBD, cannabidiol, reference compound]: the fold induction at 10 µM in assay [1] worked out at 20.5; in assay [2] (Homo sapiens, 24 h), 1.7.
